Experimental data published in patent publication US20250177292A1, “METHOD FOR TREATMENT OF PARKINSON'S DISEASE” (NeuroDerm, Ltd., priority 2013, published 2025).

Key:
[1] = cited from earlier work
[2] = Plasma LD, CD and 3-OMD during continuous SC LD/CD with oral entacapone in human volunteers (FIG. 6); assay type: in vivo, human
Experimental: A single center, double-blind, randomized, placebo-controlled, study was conducted with six healthy Caucasian males volunteers, aged 18-40 years old. LD (6%)/CD (1.5%) was administered at a rate of […], corresponding to 360 mg of LD and 90 mg of CD per 24 hours. […] Plasma LD, CD and 3-OMD concentrations were quantified at pre-determined time points.

[3] = cited from earlier work; remark: listed apart in the source
pigs = settings: pig, in vivo, sc
Experimental: The effect of carbidopa on levodopa local toxicity was investigated in pigs: solutions containing 6% LD and 0, 0.5 or 1% CD with the respective amount of arginine (13.5, 14.2 or 14.8%, respectively) were continuously administered SC to pigs at 0.16 ml/h×24 h. Each formulation was administered to 2 pigs. Skin samples were collected 8±1 days thereafter.

pig skin = assay: Continuous administration into full-thickness pig skin ex vivo (FIG. 1B); settings: 7% LD/arginine solution with 2% CD, 0.08 ml/h×18 h, 37° C.
Experimental: FIGS. 1A-1B show the effect of carbidopa on the stability of levodopa in vitro and ex vivo: 1A. 6% by weight levodopa and arginine solution with various concentrations (2, 1.5, 1, 0.5%) of carbidopa or no carbidopa were tested for physical stability in vitro. […] 1B. 7% by weight levodopa and arginine solution, with or without 2% carbidopa by weight, continuously administered in to the subcutaneous tissue of a 5×5 cm fresh, full-thickness pig skin.
A 7% LD/arginine solution, with or without 2% CD, was continuously administered at 0.08 ml/h×18 h, 37° C. into a 5×5 cm fresh, full-thickness pig skin.

[4] = Effect of carbidopa on stability of levodopa formulations in vitro (Tables F, G, FIG. 1A); assay type: physicochemical
Experimental: 6% by weight levodopa and arginine solution with various concentrations (2, 1.5, 1, 0.5%) of carbidopa or no carbidopa were tested for physical stability in vitro. […] 1B. 7% by weight levodopa and arginine solution, with or without 2% carbidopa by weight, continuously administered in to the subcutaneous tissue of a 5×5 cm fresh, full-thickness pig skin.
The effect of carbidopa on levodopa formulations was investigated. Levodopa (LD) formulations were prepared with 0, 0.5, 1, 1.5 and 2% by weight carbidopa (CD) and a constant concentration of arginine.
In an additional experiment, LD formulations were prepared with 0, 0.5, 1 and 2% CD and respective concentrations of arginine.

[5] = Stability of carbidopa formulations with and without levodopa (Table H); assay type: physicochemical; settings: in the presence of LD
Text: The effect of levodopa on the stability of carbidopa was investigated. Table H indicates results.
It appears that LD may protect CD from degradation.

[6] = Titration with acetic or lactic acid: pH and physical stability (Table D); assay type: physicochemical
Text: Formulations containing 6/1.5% and 5.4/1.5% LD/CD and varying L-Arg concentrations were titrated with acetic acid (100%) or lactic acid (85%), to study the effect of pH and L-Arg concentration on the physical stability of the solutions (Table D).

## CCN(CC)C(=O)/C(C#N)=C/c1cc(O)c(O)c([N+](=O)[O-])c1 [E, entacapone]
[1]; after 400 mg dose of entacapone, oral levodopa and carbidopa
  Highest increase in the total amount of levodopa: about 33%
[1]; high doses of entacapone (400 mg and 800 mg)
  Total amount of carbidopa in blood: decrease the total amount of carbidopa in blood
[2]; 24 hours after LD/CD infusion initiation, 9 hours after entacapone dosing initiation
  Steady state of plasma concentrations of LD: did not reach a steady state
[2]; human, in vivo
  Plasma concentrations of 3-OMD: significantly reduced
[2]; male, human, in vivo
  Blood level of levodopa: about 620 ng/ml
  Increase of the blood level of levodopa: more than 40%
[3]; according to Nyholm et al.
  Increase in the level of levodopa: up to 33%
[3]; oral 200 mg entacapone, intraintestinal infusion of levodopa and carbidopa
  Reduction of the dose of levodopa and carbidopa maintaining the desired blood level of levodopa: 20%

## C[C@@](Cc1ccc(O)c(O)c1)(NN)C(=O)O [CD, carbidopa]
pigs
  Local levodopa dependent subcutaneous toxicity: reduces the severity and extent
Pig skin
  Oxidation of LD ex vivo (black by-products): lack of black by-products formation
Pig skin; listed as carbidopa
  Oxidation of LD ex vivo (black by-products): inhibition of oxidation
[4]; Table F
  Effect on the chemical stability of levodopa: does not have a significant effect
[4]; in the absence of air (N2 in the head space), 0.5% carbidopa
  Dark yellow color formation: sufficient to inhibit this color formation
[4]; in the presence of air, 6% levodopa and arginine solution with 0.5-2% carbidopa
  Dark yellow color formation: prevented dark yellow color formation
[5]
  Sensitivity of CD to oxidation and degradation: more stable in the presence of LD

## O=C1O[C@H]([C@@H](O)CO)C(O)=C1O [ascorbic acid]
[6]
  Reduction of the pH as compared to Na-ascorbate: 0.1-0.15 units
